Assay results taken from US9232796B2, “Herbicidal compositions comprising 4-amino-3-chloro-5-fluoro-6-(4-chloro-2-fluoro-3-methoxyphenyl) pyridine-2-carboxylic acid or a derivative thereof and acetyl-CoA carboxylase (ACCase) inhibitors” (DOW AGROSCIENCES LLC, priority 2012, dated 2016).

How the values were obtained:
LEFCH = assay: Example I postemergence foliar-applied, greenhouse, direct seeded rice weeds; assay type: in vivo, Leptochloa chinensis (L.) Nees
Excerpt: Seeds or nutlets of the desired test plant species were planted in a soil matrix prepared by mixing a loam or sandy loam soil (e.g., 28.6 percent silt, 18.8 percent clay, and 52.6 percent sand, with a pH of about 5.8 and an organic matter content of about 1.8 percent) and calcareous grit in an 80 to 20 ratio. The soil matrix was contained in plastic pots with a volume of 1 quart and a surface area of 83.6 square centimeters (cm^2). When required to ensure good germination and healthy plants, a fungicide treatment and/or other chemical or physical treatment was applied. The plants were grown for 8-22 days in a greenhouse with an approximate 14 hr. photoperiod which was maintained at about 29° C. during the day and 26° C. during the night. Nutrients (Peters Excel® 15-5-15 5-Ca 2-Mg and iron chelate) were applied in the irrigation solution as needed and water was added on a regular basis. Supplemental lighting was provided with overhead metal halide 1000-Watt lamps as necessary. The plants were employed for testing when they reached the first through fourth true leaf stage.
Treatments consisted of the acid or esters of 4-amino-3-chloro-5-fluoro-6-(4-chloro-2-fluoro-3-methoxy-phenyl)pyridine-2-carboxylic acid (Compound A), each formulated as an SC (suspension concentrate), and various herbicidal components alone and in combination.
Other herbicidal components were applied on an acid equivalent (ae) or active ingredient (ai) basis and included acetyl coA carboxylase (ACCase)-inhibiting herbicides (cyclohexanedione and aryloxyphenoxypropionate chemical classes) cyhalofop-butyl formulated as Clincher® SF (285 gr ai/L EC), diclofop-methyl formulated as Hoelon® 3EC, fenoxaprop-p-ethyl+isoxadifen-ethyl formulated as RiceStar® HT (0.58 lb./gal EC), fenoxaprop-p-ethyl+mefenpyr diethyl formulated as Puma® IEC, metamifop formulated as Metamifop EC, haloxyfop-methyl formulated as Gallant Super®, fluazifop-p-butyl formulated as Fusilade® DX, quizalofop-p-ethyl formulated as Assure® II, profoxydim formulated as Aura® 20EC, clethodim applied as Intensity®, sethoxydim formulated as Poast®, and tralkoxydim formulated as Achieve®.
Treatment requirements were calculated based upon the rates being tested, the concentration of active ingredient or acid equivalent in the formulation, and a 12 mL application volume at a rate of 187 L/ha.
For treatments comprised of formulated compounds, measured amounts of compounds were placed individually in 25 mL glass vials and diluted in a volume of 1.25% (v/v) Agri-Dex® crop oil concentrated to obtain 12× stock solutions. […] Application solutions were prepared by adding an appropriate amount of each stock solution (e.g., 1 mL) and diluted to the appropriate final concentrations with the addition of 10 mL of an aqueous mixture of 1.25% (v/v) crop oil concentrate so that the final spray solutions contained 1.25+/−0.05% (v/v) crop oil concentrate.
All stock solutions and applications solutions were visually inspected for compound compatibility prior to application. Spray solutions were applied to the plant material with an overhead Mandel track sprayer equipped with a 8002E nozzles calibrated to deliver 187 L/ha over an application area of 0.503 m^2 at a spray height of 18 to 20 inches (46 to 50 cm) above average plant canopy height. Control plants were sprayed in the same manner with the solvent blank.
The treated plants and control plants were placed in a greenhouse as described above and watered by sub-irrigation to prevent wash-off of the test compounds. After approximately 3 weeks, the condition of the test plants as compared with that of the untreated plants was determined visually and scored on a scale of 0 to 100 percent where 0 corresponds to no injury or growth inhibition and 100 corresponds to complete kill. […]

CYPIR = assay: as above; assay type: in vivo, Cyperus iria L.
Method in brief: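 Foliar spray, 187 L/ha, 1.25% (v/v) COC; plants at 1st–4th true leaf, greenhouse ~29/26 °C, 14 h light. Compound A acid/esters (SC) ± ACCase inhibitors, rates on ae/ai basis. Visual 0–100% injury vs untreated at ~3 wk; Colby expected values.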

SCPMA = assay: Example VI in-water applied ternary mixtures, greenhouse, transplanted paddy rice weeds; assay type: in vivo
CYPDI = assay: Example V post-emergence field trials in direct-seeded rice; assay type: in vivo, Cyperus difformis; settings: foliar, field trial Greece
Method: Multiple field trials were conducted under commercial grower field conditions in Tolima, Colombia; Thessaloniki, Greece; Bianze and Copiano, Italy; and Humphrey, Ark., USA. Trials sites were located in commercially grown fields of direct-seeded rice (Oryza sativa) using standard herbicide small plot research methodology. Plots varied from 2 to 3 meter (m)×5 to 8 m (width×length) with 4 replicates per treatment. The rice crop was grown using normal cultural practices for fertilization, seeding, watering, flooding and maintenance to ensure good growth of the crop and the weeds.
All treatments in the field trials were applied using a backpack compressed air/gas sprayer with flat fan nozzles (80° or 110°) calibrated to apply 187 to 300 L/ha spray volume at approximately 200-400 kPa nozzle pressure. Commercially available products of cyhalofop-butyl (Clincher 180EC, Clincher 200EC, and Clincher SF (285 gr ai/L EC)) were mixed in water at appropriate formulated product rates to achieve the desired rates based on a unit area of application (hectare) to achieve the desired rates as shown. Treatments were rate at 19 to 58 days after application (DAA) as compared to the untreated control plants. Visual weed control was scored on a scale of 0 to 100 percent where 0 corresponds to no injury and 100 corresponds to complete kill. […]

## CCC/C(=N\OCC(C)Oc1ccc(Cl)cc1)C1=C(O)CC(C2CCCSC2)CC1=O (centres unmarked) [Profoxydim, 2-[1-[[2-(4-chlorophenoxy)propoxy]imino]butyl]-3-hydroxy-5-(tetrahydro-2H-thiopyran-3-yl)-2-cyclohexen-1-one, reference compound]
LEFCH; 12.5 gai/ha
  Visual Weed Control (%) - 20 DAA LEFCH Obs: 0%
LEFCH; 25 gai/ha
  Visual Weed Control (%) - 20 DAA LEFCH Obs: 40%

## COc1c(Cl)ccc(-c2nc(C(=O)O)c(Cl)c(N)c2F)c1F [Compound A Acid, 4-amino-3-chloro-6-(4-chloro-2-fluoro-3-methoxyphenyl)-5-fluoropyridine-2-carboxylic acid]
CYPIR; 4.38 gae/ha
  Visual Weed Control (%) - 22 DAA CYPIR Obs: 15%

## COc1c(Cl)ccc(-c2nc(C(=O)OCc3ccccc3)c(Cl)c(N)c2F)c1F [Compound A Benzyl Ester, benzyl ester of 4-amino-3-chloro-5-fluoro-6-(4-chloro-2-fluoro-3-methoxy-phenyl)pyridine-2-carboxylic acid]
LEFCH; 4.38 gae/ha
  Visual Weed Control (%) - 20 DAA LEFCH Obs: 0%
LEFCH; 8 gae/ha
  Visual Weed Control (%) - 22 DAA LEFCH Obs: 15%
LEFCH; 8.75 gae/ha
  Visual Weed Control (%) - 20 DAA LEFCH Obs: 10%
LEFCH; 16 gae/ha
  Visual Weed Control (%) - 22 DAA LEFCH Obs: 50%
LEFCH; 17.5 gae/ha
  Visual Weed Control (%) - 20 DAA LEFCH Obs: 25%
SCPMA; Table 68, 4 gae/ha
  Visual Weed Control (%) - 21 DAA SCPMA Obs: 0%
SCPMA; Table 68, 8 gae/ha
  Visual Weed Control (%) - 21 DAA SCPMA Obs: 0%
SCPMA; Table 68, 16 gae/ha
  Visual Weed Control (%) - 21 DAA SCPMA Obs: 0%
CYPDI; 24 gae/ha
  Visual Weed Control (%) - 55-58 DAA CYPDI Obs: 81%
CYPIR; 4.38 gae/ha
  Visual Weed Control (%) - 20 DAA CYPIR Obs: 15%
CYPIR; 8 gae/ha
  Visual Weed Control (%) - 22 DAA CYPIR Obs: 20%
CYPIR; 8.75 gae/ha
  Visual Weed Control (%) - 20 DAA CYPIR Obs: 35%
CYPIR; 16 gae/ha
  Visual Weed Control (%) - 22 DAA CYPIR Obs: 85%
CYPIR; 32 gae/ha
  Visual Weed Control (%) - 22 DAA CYPIR Obs: 100%

## CCCCOC(=O)[C@@H](C)Oc1ccc(Oc2ccc(C#N)cc2F)cc1 [Cyhalofop-butyl, butyl(2R)-2-[4-(4-cyano-2-fluorophenoxy)phenoxy]propanoate, reference compound]
SCPMA; Table 68, cyhalofop-butyl 22.5 gai/ha
  Visual Weed Control (%) - 21 DAA SCPMA Obs: 0%
SCPMA; Table 68, cyhalofop-butyl 45 gai/ha
  Visual Weed Control (%) - 21 DAA SCPMA Obs: 0%
CYPDI; 300 gai/ha
  Visual Weed Control (%) - 55-58 DAA CYPDI Obs: 0%
